This note sets out measurements from US8354402B2, “Polyarylcarboxamides useful as lipid lowering agents” (Janssen Pharmaceutica N.V., priority 2000, dated 2013).

The first test relates to ApoB secretion, HepG2 cells. In words: Quantification of the secretion of ApoB (HepG2 cells, immunoprecipitation, scintillation counting). The test is classed as cell-based. The note with it: Homo sapiens, 24 hours of incubation. The procedure:
C.1. Quantification of the Secretion of ApoB
HepG2 cells were cultured in 24-well plates in Minimal Essential Medium Rega 3 containing 10% fetal calf serum. Rega 3 has the following composition: CaCl2 (264 μg/ml), KCl (400 μg/ml), MgSO4.7H2O (200 μg/ml), NaCl (6800 μg/ml), NaHCO3 (850 μg/ml), NaH2PO4.H2O (158 μg/ml), D-glucose (1000 μg/ml), phenol red (10 μg/ml), L-alanine (8.9 μg/ml), L-arginine HCl (12 μg/ml), L-asparagine.H2O (15 μg/ml), L-aspartic acid (13.3 μg/ml), L-cystine (24 μg/ml), L-glutamic acid (14.7 μg/ml), glycine (7.5 μg/ml), L-histidine.HCl .H2O (42 μg/ml), L-isoleucine (52 μg/ml), L-leucine (52 μg/ml), L-lysine.HCl (72.5 μg/ml), L-methionine (15 μg/ml), L-phenylalanine (32 μg/ml), L-proline (11.5 μg/ml), L-serine (10.5 μg/ml), L-threonine (48 μg/ml), L-tryptophan (10 μg/ml), L-tyrosine (36 μg/ml), L-valine (46 μg/ml), D-Ca pantothenate (1 μg/ml), choline chloride (1 μg/ml), folic acid (1 μg/ml), 1-enositol (2 μg/ml), nicotinamide (1 μg/ml), pyridoxal HCl (1 μg/ml), riboflavin (0.1 μg/ml) and thiamine HCl (1 μg/ml).
At 70% confluency, the medium was changed and the test compound or carrier (dimethylsulfoxide, 0.4% final concentration) was added. After 24 hours of incubation, the medium was transferred to Eppendorf tubes and cleared by centrifugation. A sheep antibody directed against either apo B was added to the supernatant and the mixture was kept at 8° C. for 24 hours. Then, rabbit anti-sheep antibody was added and the immune complex was allowed to precipitate for 24 hours at 8° C. The immunoprecipitate was pelleted by centrifugation for 25 minutes at 1320 g and washed twice with a buffer containing 40 mM 4-morpholinepropanesulfonic acid, 40 mM NaH2PO4, 100 mM NaF, 0.2 mM dithiothreitol, 5 mM ethylenediamine tetraacetic acid, 5 mM ethylenebis (oxyethylenenitrilo) tetraacetic acid, 1% Triton-X-100, 0.5% sodium deoxycholate, 0.1% sodium dodecylsulphate, 0.2 μM leupeptin and 0.2 μM phenylmethylsulphonylfluoride. Radioactivity in the pellet was quantified by liquid scintillation counting.
Resulting IC50 values are enumerated in Table C.1 for a number of compounds No. 1 to No. 123.
The IC50 is the concentration that inhibits the measured activity by half. As for `COC(=O)N(c1ccccc1)C1CCN(c2ccc(NC(=O)c3ccccc3-c3ccc(C(F)(F)F)cc3)cc2)CC1` [Co. No. 251], the midpoint of inhibition, the IC50, lay at 9.64 nM. This lies in the single-digit nanomolar range.

Still in this test, the particulars now being: Homo sapiens, HepG2, 24 h, 24 hours of incubation.
Consider `O=C(Nc1ccc(N2CCC(C(C(=O)NCc3ccccc3)c3ccccc3)CC2)cc1)c1ccccc1-c1ccc(Cl)cc1` (centres unmarked) [Co. No. 100], for which the IC50 is 11.6 nM. Consider `COC(=O)C(c1ccccc1)N1CCN(c2ccc(NC(=O)c3cc(C)ccc3-c3ccc(C(F)(F)F)cc3)cc2)CC1` (centres unmarked) [Co. No. 189], for which the IC50 is 105 nM.

Compound `COC(=O)C(c1ccccc1)N1CCN(c2ccc(NC(=O)c3ccccc3-c3ccc(Cl)cc3)cc2)CC1` (centres unmarked) [Co. No. 159] showed an IC50 of 106 nM. This IC50 and that of the compound before are within 1.5-fold of each other. `O=C(Nc1ccc(C2CCN(C(C(=O)NCc3ccccn3)c3ccccc3)CC2)cc1)c1ccccc1-c1ccc(C(F)(F)F)cc1` (centres unmarked) [Co. No. 77]: the IC50 was not above 30 nM. Same read-out and setting: then `COC(=O)C(c1ccccc1)N1CCN(c2ccc(NC(=O)c3ccccc3-c3ccc(C(F)(F)F)cc3)cc2Cl)CC1` (centres unmarked) [Co. No. 205], with 47.5 nM; and `CCCCNC(=O)C(CN1CCN(c2ccc(NC(=O)c3ccccc3-c3ccc(C(F)(F)F)cc3)cc2)CC1)c1ccccc1` (centres unmarked) [Co. No. 64], with 159 nM; and `CCCNC(=O)C(c1ccccc1)C1CCN(c2ccc(NC(=O)c3ccccc3Cc3ccccc3)cc2)CC1` (centres unmarked) [Co. No. 20], with 989 nM. Still for that read-out and setting: then `O=C(Nc1ccc(C2CCN(C(C(=O)NC3CC3)c3ccccc3)CC2)cc1)c1ccccc1-c1ccc(C(F)(F)F)cc1` (centres unmarked) [Co. No. 72], with not above 30 nM. As for `CC(C)(C)c1ccc(-c2ccccc2C(=O)Nc2ccc(N3CCC(C(C(=O)NCc4ccccc4)c4ccccc4)CC3)cc2)cc1` (centres unmarked) [Co. No. 53], the IC50 is 1.84 nM. `COC(=O)C(c1ccccc1)N1CCN(c2ccc(NC(=O)c3ccccc3-c3ccc(C(F)(F)F)cc3)c(F)c2)CC1` (centres unmarked) [Co. No. 212] gave an IC50 of less than 30 nM.

`O=C(Nc1ccc(N2CCC(C(C(=O)NCc3ccccc3)c3ccccc3)CC2)cc1)c1ccccc1-c1cc(Cl)cc(Cl)c1` (centres unmarked) [Co. No. 50] showed an IC50 of 93.8 nM. That is a double-digit nanomolar value. Compound `CCNC(=O)C(c1ccccc1)N1CCN(c2ccc(NC(=O)c3ccc(Cl)cc3-c3ccc(C(F)(F)F)cc3)cc2)CC1` (centres unmarked) [Co. No. 201] showed an IC50 of less than 30 nM. On the same count and under the same terms, with `O=C(Nc1ccc(N2CCC(C(C(=O)Nc3ccccc3)c3ccccc3)CC2)cc1)c1ccccc1-c1ccc(Cl)cc1` (centres unmarked) [Co. No. 113] the figure was 115 nM; with `CC(C)(C)c1ccc(-c2ccccc2C(=O)Nc2ccc(N3CCC(C(C(=O)NCc4ccccc4)c4ccc(F)cc4)CC3)cc2)cc1` (centres unmarked) [Co. No. 255], 5.04 nM; with `O=C(Nc1ccc(N2CCC(C(C(=O)Oc3ccccc3)c3ccccc3)CC2)cc1)c1ccccc1-c1ccccc1` (centres unmarked) [Co. No. 178], 34.3 nM. The compound `O=C(Nc1ccc(N2CCC(C(C(=O)NCc3ccccc3)c3ccccc3)CC2)cc1)c1ccccc1Oc1ccccc1` (centres unmarked) [Co. No. 9] gave an IC50 of 221 nM.

`COC(=O)C(c1ccccc1)N1CCN(c2ccc(NC(=O)c3ccc(C)cc3-c3ccc(C(F)(F)F)cc3)cc2)CC1` (centres unmarked) [Co. No. 184] had a concentration for half-maximal inhibition (IC50) of 3.13 nM. On the same count and under the same terms, then `COC(=O)C(c1ccccc1)N1CCCN(c2ccc(NC(=O)c3ccccc3-c3ccc(C(F)(F)F)cc3)cc2)CC1` (centres unmarked) [Co. No. 119], with 175 nM. On to `Nc1cccc(-c2ccccc2C(=O)Nc2ccc(N3CCC(C(C(=O)Nc4ccccc4)c4ccccc4)CC3)cc2)c1` (centres unmarked) [Co. No. 111], for which inhibition was half-maximal at 221 nM (IC50).

In turn, `O=C(Nc1ccc(N2CCC(C(C(=O)Nc3ccccc3)c3ccccc3)CC2)cc1)c1ccccc1OCc1ccccc1` (centres unmarked) [Co. No. 33] showed an IC50 not below 3000 nM. Same read-out and setting: then `CC(C)NC(=O)C(c1ccccc1)C1CCN(c2ccc(NC(=O)c3ccccc3Oc3ccccc3)cc2)CC1` (centres unmarked) [Co. No. 27], with 1300 nM; and `CCC(CC)OC(=O)C(c1ccccc1)C1CCN(c2ccc(NC(=O)c3ccccc3-c3ccc(C(F)(F)F)cc3)cc2)CC1` (centres unmarked) [Co. No. 247], with more than 3000 nM; and `Cc1ccc(-c2ccccc2C(=O)Nc2ccc(N3CCC(C(C(=O)NCc4ccccc4)c4ccccc4)CC3)cc2)cc1` (centres unmarked) [Co. No. 104], with 7.94 nM. On the same count and under the same terms, then `CCNC(=O)C(c1ccccc1)C1CCN(c2ccc(NC(=O)c3ccccc3-c3ccc(F)cc3)cc2)CC1` (centres unmarked) [Co. No. 92], with 63.2 nM. The same measure, in the same setting: then `O=C(Nc1ccc(N2CCN(C(C(=O)Nc3ccccc3)c3ccccc3)CC2)cc1)c1ccccc1-c1ccc(C(F)(F)F)cc1` (centres unmarked) [Co. No. 140], with 20.3 nM; and `CCCNC(=O)C(c1ccccc1)N1CCCN(c2ccc(NC(=O)c3ccccc3-c3ccc(C(F)(F)F)cc3)cc2)CC1` (centres unmarked) [Co. No. 123], with 241 nM; and `CCCCNC(=O)C(c1ccccc1)N1CCC(c2ccc(NC(=O)c3ccccc3-c3ccc(C(F)(F)F)cc3)cc2)CC1` (centres unmarked) [Co. No. 73], with 6.08 nM. In turn, `CCc1ccc(-c2c(C)cccc2C(=O)Nc2ccc(N3CCC(C(C(=O)OC)c4ccccc4)CC3)cc2)cc1` (centres unmarked) [Co. No. 234] showed an IC50 of less than 30 nM.

The compound `COC(=O)C(c1ccccc1)N1CCN(c2ccc(NC(=O)c3ccccc3-c3ccc(C(F)(F)F)cc3)cc2C(F)(F)F)CC1` (centres unmarked) [Co. No. 210] gave an IC50 of 483 nM. This counts as sub-micromolar. Compound `O=C(Nc1ccc(C2CCN(C(C(=O)NCC(F)(F)F)c3ccccc3)CC2)cc1)c1ccccc1-c1ccc(C(F)(F)F)cc1` (centres unmarked) [Co. No. 78] gave an IC50 of 32.5 nM.

The compound `CCCNC(=O)C(c1ccccc1)C1CCN(c2ccc(NC(=O)c3ccccc3-c3ccc(OC)cc3)cc2)CC1` (centres unmarked) [Co. No. 46] gave an IC50 of 461 nM. On to `CCNC(=O)C(c1ccccc1)C1CCN(c2ccc(NC(=O)c3ccccc3-c3ccc(C)cc3)cc2)CC1` (centres unmarked) [Co. No. 94], for which inhibition was half-maximal at 44.1 nM (IC50). Same read-out and setting: then `CCNC(=O)C(c1ccccc1)N1CCN(c2ccc(NC(=O)c3cc(Cl)ccc3-c3ccc(C(F)(F)F)cc3)cc2)CC1` (centres unmarked) [Co. No. 200], with 80.2 nM; and `COC(=O)C(c1ccccc1)N1CCN(c2ccc(NC(=O)c3ccc(F)cc3-c3ccc(C(F)(F)F)cc3)cc2)CC1` (centres unmarked) [Co. No. 185], with 48.8 nM. Turning to `CCNC(=O)C(c1ccccc1)N1CCN(c2ccc(NC(=O)c3c(F)cccc3-c3ccc(C(F)(F)F)cc3)cc2)CC1` (centres unmarked) [Co. No. 196], half-maximal inhibition (IC50) was put at 100 nM. The compound `C=CCNC(=O)C(c1ccccc1)N1CC=C(c2ccc(NC(=O)c3ccccc3-c3ccc(C(F)(F)F)cc3)cc2)CC1` (centres unmarked) [Co. No. 165] showed an IC50 of 33 nM.

In the case of `O=C(Nc1ccc(N2CCC(C(C(=O)OCCc3ccccc3)c3ccccc3)CC2)cc1)c1ccccc1-c1ccc(C(F)(F)F)cc1` (centres unmarked) [Co. No. 250], the IC50 is 233 nM.

For `CCCNC(=O)C(c1ccccc1)C1CCN(c2ccc(NC(=O)c3cccc4c3Cc3ccccc3-4)cc2)CC1` (centres unmarked) [Co. No. 14], the IC50 was not below 3000 nM. The same measure, in the same setting: then `O=C(Nc1ccc(N2CCC(C(C(=O)Nc3ccccc3)c3ccccc3)CC2)cc1)c1ccccc1-c1ccccc1C(F)(F)F` (centres unmarked) [Co. No. 109], with 1470 nM; and `CC(C)CNC(=O)C(c1ccccc1)N1CCC(c2ccc(NC(=O)c3ccccc3-c3ccc(C(F)(F)F)cc3)cc2)CC1` (centres unmarked) [Co. No. 74], with not above 30 nM; and `C=CCOC(=O)C(c1ccccc1)N1CCC(c2ccc(NC(=O)c3ccccc3-c3ccccc3)cc2)CC1` (centres unmarked) [Co. No. 154], with 2320 nM.

`O=C(Nc1ccc(N2CCN(C(C(=O)OCc3ccccc3)c3ccccc3)CC2)cc1)c1ccccc1-c1ccc(C(F)(F)F)cc1` (centres unmarked) [Co. No. 142] gave an IC50 of 114 nM. Against the preceding compound, the IC50 is about 20-fold lower. On the same count and under the same terms, with `CCNC(=O)C(c1ccccc1)N1CCN(c2cc(C)c(NC(=O)c3ccccc3-c3ccc(C(F)(F)F)cc3)c(C)c2)CC1` (centres unmarked) [Co. No. 216] the figure was 47.1 nM; with `O=C(Nc1ccc(C2=CCN(C(C(=O)NCc3ccccc3)c3ccccc3)CC2)cc1)c1ccccc1-c1ccccc1` (centres unmarked) [Co. No. 166], 36 nM.

`CCNC(=O)C(c1ccccc1)C1CCN(c2ccc(NC(=O)c3ccccc3-c3cccc(C(F)(F)F)c3)cc2)CC1` (centres unmarked) [Co. No. 96]: half-maximal inhibition (IC50) was put at 32.1 nM. In turn, `O=C(Nc1ccc(N2CCC(C(C(=O)NCc3ccccc3)c3ccccc3)CC2)cc1)c1ccccc1C(=O)c1ccccc1` (centres unmarked) [Co. No. 5] showed an IC50 of 158 nM. With `O=C(Nc1ccc(N2CCC(C(C(=O)Nc3ccccc3)c3ccccc3)CC2)cc1)c1ccccc1-c1ccc2ccccc2c1` (centres unmarked) [Co. No. 138], the IC50 was 99.3 nM. On the same count and under the same terms, with `C#CCOC(=O)C(c1ccccc1)C1CCN(c2ccc(NC(=O)c3ccccc3-c3ccc(C(F)(F)F)cc3)cc2)CC1` (centres unmarked) [Co. No. 248] the figure was 68.5 nM.

Turning to `CCNC(=O)C(c1ccccc1)N1CCN(c2ccc(NC(=O)c3cc(OC)c(OC)cc3-c3ccc(C(F)(F)F)cc3)cc2)CC1` (centres unmarked) [Co. No. 202], the IC50 is 184 nM.
